Test [1] addresses T1, Heme oxygenase 2 (Rattus norvegicus, UniProt P23711).
T1 sequence (P23711 whole entry): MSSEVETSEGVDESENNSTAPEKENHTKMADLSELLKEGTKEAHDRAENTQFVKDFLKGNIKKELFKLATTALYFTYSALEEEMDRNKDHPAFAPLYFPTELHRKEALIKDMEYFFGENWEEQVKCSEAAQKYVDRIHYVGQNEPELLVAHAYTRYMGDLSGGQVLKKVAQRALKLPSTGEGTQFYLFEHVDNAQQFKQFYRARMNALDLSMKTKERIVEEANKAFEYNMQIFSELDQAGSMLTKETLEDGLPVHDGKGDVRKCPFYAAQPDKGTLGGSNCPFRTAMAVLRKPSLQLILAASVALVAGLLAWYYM
The experiment in a line: Inhibition of HO-2 in Sprague-Dawley rat brain microsomes using NADPH as substrate preincubated for 10 mins followed by substrate addition and measured after 15 mins by GC analysis.

Test [2] concerns the target T2, Heme oxygenase 1 (Rattus norvegicus, UniProt P06762).
T2 sequence (P06762 whole entry): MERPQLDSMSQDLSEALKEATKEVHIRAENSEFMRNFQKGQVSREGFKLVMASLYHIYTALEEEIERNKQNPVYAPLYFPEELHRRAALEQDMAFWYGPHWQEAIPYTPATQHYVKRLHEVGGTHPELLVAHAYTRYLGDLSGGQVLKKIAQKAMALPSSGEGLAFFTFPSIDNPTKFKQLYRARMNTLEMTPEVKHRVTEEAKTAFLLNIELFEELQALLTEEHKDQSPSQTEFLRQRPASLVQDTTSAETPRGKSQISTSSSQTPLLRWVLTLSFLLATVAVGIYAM
The experiment in a line: Inhibition of HO-1 in Sprague-Dawley rat spleen microsomes using NADPH as substrate preincubated for 10 mins followed by substrate addition and measured after 15 mins by GC analysis.

Test [3] addresses T3, Heme oxygenase 1 (Homo sapiens, UniProt P09601).
T3 sequence (P09601 whole entry): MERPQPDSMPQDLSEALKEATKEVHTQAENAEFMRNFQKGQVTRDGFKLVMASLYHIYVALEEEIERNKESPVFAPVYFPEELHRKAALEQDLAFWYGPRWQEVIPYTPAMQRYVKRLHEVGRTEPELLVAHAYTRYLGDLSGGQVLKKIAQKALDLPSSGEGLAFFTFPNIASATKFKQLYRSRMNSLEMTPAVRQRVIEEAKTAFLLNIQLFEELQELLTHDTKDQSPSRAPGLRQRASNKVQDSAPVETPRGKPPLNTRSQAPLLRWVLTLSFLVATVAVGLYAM
The experiment in a line: Inhibition of human recombinant HO-1 by spectrometry based assay.

Test [4] addresses T2, Heme oxygenase 1. The experiment in a line: Inhibition of HO-1 in Sprague-Dawley rat spleen microsomes using NADPH as substrate incubated for 60 mins by spectrometry based assay.
Test [5] is described as follows: Growth inhibition of […] B16 cells incubated for 72 hrs by sulforhodamine B assay. Type of test: functional. To be noted: B16, 72 h.
Test [6] concerns the target T4, Heme oxygenase 2 (Homo sapiens, UniProt P30519).
T4 sequence (P30519 whole entry): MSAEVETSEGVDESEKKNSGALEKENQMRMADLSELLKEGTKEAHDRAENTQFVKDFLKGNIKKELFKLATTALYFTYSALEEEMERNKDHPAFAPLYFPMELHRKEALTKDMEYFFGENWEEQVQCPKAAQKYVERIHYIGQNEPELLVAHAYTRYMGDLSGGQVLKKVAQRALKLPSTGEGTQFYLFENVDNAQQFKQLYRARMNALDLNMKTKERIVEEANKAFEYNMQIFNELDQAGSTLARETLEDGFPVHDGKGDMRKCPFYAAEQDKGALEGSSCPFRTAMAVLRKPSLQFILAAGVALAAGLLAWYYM
The experiment in a line: Inhibition of HO-2 (unknown origin).

SMILES strings stand for the structures.

In general, IC50 refers to the concentration needed to halve the response being measured.

For `Clc1ccc(Cn2c(CC3CCCCC3)nc3ccccc32)cc1`, the IC50 on Heme oxygenase 2 [1] was 5.4 µM; at Heme oxygenase 1 [2], more than 100 µM.

In the case of `OC(Cn1ccnc1)c1ccc(-c2ccc(Br)cc2)cc1` (stereo not given), the IC50 at Heme oxygenase 1 [3] worked out at 0.06 µM.

With `FC(F)(F)c1ccc(COc2ccc(CCn3ccnc3)cc2)cc1`, the IC50 at Heme oxygenase 1 [3] came to 54 µM.

Turning to `O=C(Cn1ccnc1)c1ccc(Br)cc1`, the IC50 against Heme oxygenase 1 [4] is 2.5 µM.

With `Brc1ccc(Cn2c(CC3CCCCC3)nc3ccccc32)cc1`, the values for the IC50 against Heme oxygenase 2 [1] and on Heme oxygenase 1 [2] were 5.4 µM and more than 100 µM, respectively.

On to `Clc1ccc(Cn2c(CC3CCCC3)nc3ccccc32)cc1`, for which the IC50 against Heme oxygenase 2 [1] worked out at 3.3 µM; at Heme oxygenase 1 [2], 32.4 µM.

Turning to `c1ccc(COc2ccc(CCn3ccnc3)cc2)cc1`, the IC50 at Heme oxygenase 1 [3] came out at 0.9 µM.

On to `O=[N+]([O-])c1ccc(C(O)Cn2ccnc2)cc1` (stereo not given), for which, at Heme oxygenase 1 [4], the IC50 came to 10 µM.

Turning to `Brc1ccc(Cn2c(Cn3ccnc3)nc3ccccc32)cc1`, the IC50 on Heme oxygenase 2 [1] was found to be 4.2 µM; against Heme oxygenase 1 [2], 2.7 µM.

For the compound `c1ccc(OCCn2ccnc2)cc1`, 28 µM corresponded to half-maximal inhibition against Heme oxygenase 1 [4] (IC50).

On to `Brc1ccc(Cn2c(CN3CCOCC3)nc3ccccc32)cc1`, for which the IC50 was 30.1 µM against Heme oxygenase 2 [1] and more than 100 µM against Heme oxygenase 1 [2].

In test [5], `OC(Cn1ccnc1)c1cccc(Br)c1` (stereo not given) had an IC50 of 37 µM.

With `Brc1ccc(CCC2(Cn3ccnc3)OCCO2)cc1`, the results for the IC50 at Heme oxygenase 2 [6] and on Heme oxygenase 1 [3] were more than 100 µM and 1.9 µM, respectively.

Turning to `O=C(Cn1ccnc1)C12CC3CC(CC(C3)C1)C2`, the IC50 on Heme oxygenase 2 [6] is more than 100 µM.

As to `Clc1ccc(Cn2c(CN3CCOCC3)nc3ccccc32)cc1`, the results for the 50% inhibitory concentration (IC50) against Heme oxygenase 2 [1] and on Heme oxygenase 1 [2] were 31.9 µM and more than 100 µM, respectively.

Consider `Brc1ccc(CCCCn2ccnc2)cc1`, for which the 50% inhibitory concentration (IC50) at Heme oxygenase 1 [3] was found to be 0.25 µM.

For `Brc1ccc(Cn2c(CC3CC4CCC3C4)nc3ccccc32)cc1` (stereo not given), the IC50 at Heme oxygenase 2 [1] is 5.1 µM; against Heme oxygenase 1 [2], more than 100 µM.

In the case of `Brc1cccc(OCCCCn2ccnc2)c1`, on Heme oxygenase 2 [6], the IC50 came out at 2.2 µM.

For the compound `Clc1ccc(Cn2c(CC3CC4CCC3C4)nc3ccccc32)cc1` (stereo not given), the IC50 is 4.3 µM on Heme oxygenase 2 [1] and more than 100 µM against Heme oxygenase 1 [2].

`Brc1ccc(OCCCCCCn2ccnc2)cc1` had an IC50 against Heme oxygenase 1 [4] of 10 µM.

At Heme oxygenase 1 [4], `COc1ccc2[nH]c(=O)c(-c3nc(-c4ccccc4)c(-c4ccccc4)[nH]3)cc2c1` gave an IC50 of 9.2 µM.

The values are drawn from ChEMBL document CHEMBL4433201, “Progress in the development of selective heme oxygenase-1 inhibitors and their potential therapeutic application” (Eur J Med Chem, 2019).
